# Measured values: patent US20200022967A1, “Use of 2-carboxamide cycloamino urea derivatives in the treatment of EGFR dependent diseases or diseases that have acquired resistance to agents that target EGFR family members” (Novartis AG, priority 2010, published 2020)
# Tested on: NCI-N87 tumors
# Assay: NCI-N87 xenograft in CB17 SCID mice, Compound A alone and with lapatinib (Example 6)
# Assay type: in vivo
# Settings: for Median TTE: control 26.2
# Protocol: The NCI-N87 cells were harvested with 5× trypsin. Eight days after tumor implantation (on Day 1 of the study), mice with an individual tumor volume of 88-196 mm^3 were sorted into 10 groups of ten mice with a group mean tumor volume of 143-149 mm^3.
# Where applicable, data is presented as mean±SEM. Each animal was euthanized when its neoplasm reached the endpoint volume (1000 mm^3), or on the last day of the study (Day 59). Time to endpoint (TTE) is calculated by the equation: TTE=(log10(endpoint volume)−b)/m, where TTE is expressed in days, endpoint volume is in mm3, b is the intercept and m is the slope of the line obtained by linear regression of a log-transformed tumor growth data set. Treatment efficacy was determined from Tumor Growth Delay (TGD), which was defined as the increase in the median time to endpoint (TTE) for a treatment group compared to the control group (TGD=T−C), expressed in days, or as a percentage of the median TTE of the control group (% TGD=((T−C)/C)×100), wherein T=median TTE for a treatment group and C=median TTE for the designated control group.
# Statistical and graphical analyses was performed with Prism 3.03 (GraphPad) for Windows. For all tests, the level of significance of differences was done using ANOVA, with Bartlett's test; and a post-hoc Dunnett's multiple comparison test compared the mean change for each drub-treated group to the mean for Group 1. Survival was analyzed by the Kaplan-Meier method. The logrank test was employed to analyze the significance of the difference between the overall survival experiences of two groups, based on time to endpoint (TTE) values. The two-tailed statistical analyses were conducted at P=0.05. Prism summarizes test results as not significant (ns) at P>0.05, significant (symbolized by “*”) at 0.01<P<0.05, very significant (symbolized by “**”) at 0.001<P<0.01, and extremely significant (symbolized by “***”) at P<0.001.
# [1] = Group 2 (9 animals): Compound A 12.5 mg/kg p.o. once daily
# [2] = Group 2: Compound A 12.5 mg/kg p.o. once daily
# [3] = Group 3 (9 animals): Compound A 25 mg/kg p.o. once daily
# [4] = Group 3: Compound A 25 mg/kg p.o. once daily
smiles,measurement,setting,value
"Cc1nc(NC(=O)N2CCC[C@H]2C(N)=O)sc1-c1ccnc(C(C)(C)C(F)(F)F)c1 [Compound A, (S)-Pyrrolidine-1,2-dicarboxylic acid 2-amide 1-({4-methyl-5-[2-(2,2,2-trifluoro-1,1-dimethyl-ethyl)-pyridin-4-yl]-thiazol-2-yl}-amide)]",Regressions CR,[1],CR: 0
same,Regressions PR,[1],"PR: 0,"
same,Median TTE,"Group 2 (9 animals): Compound A 12.5 mg/kg p.o. once daily, vs G1 ns",30.4 days
same,% TGD,[2],16%
same,T-C,[2],4.2 days
same,Regressions CR,[3],CR: 0
same,Regressions PR,[3],"PR: 0,"
same,Median TTE,"Group 3 (9 animals): Compound A 25 mg/kg p.o. once daily, vs G1 *",43.5 days
same,% TGD,[4],16%
same,T-C,[4],17.3 days
